The term EC50 denotes the concentration needed to bring the measured effect to its halfway point. Read a high EC50 as a need for much substance.

This experiment deals with Growth hormone secretagogue receptor type 1 (Homo sapiens, UniProt Q92847). In words: SUPPLEMENTARY: Agonist activity at GSHR by FLIPR assay. Same assay as CHEMBL941945. The class given is functional.
Sequence of Growth hormone secretagogue receptor type 1 (Q92847 whole entry): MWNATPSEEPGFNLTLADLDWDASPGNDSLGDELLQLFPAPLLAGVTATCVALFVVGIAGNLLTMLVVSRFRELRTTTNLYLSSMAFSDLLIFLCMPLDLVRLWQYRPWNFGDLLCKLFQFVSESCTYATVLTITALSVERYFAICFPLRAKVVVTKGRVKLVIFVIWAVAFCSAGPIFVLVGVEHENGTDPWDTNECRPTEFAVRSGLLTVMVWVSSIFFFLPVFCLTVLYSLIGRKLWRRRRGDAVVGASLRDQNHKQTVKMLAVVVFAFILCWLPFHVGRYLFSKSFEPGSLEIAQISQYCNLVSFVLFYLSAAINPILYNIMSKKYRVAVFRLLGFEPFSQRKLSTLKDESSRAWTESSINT
Regarding `COc1ccc(NS(=O)(=O)c2ccc(-c3ccc(C)s3)s2)cc1N1C[C@@H](C)N[C@@H](C)C1`, the EC50 is 0.00158 µM.

`COc1ccc(NS(=O)(=O)c2ccc(-c3cc(C)cs3)cc2)cc1N1C[C@@H](C)N[C@@H](C)C1` showed an EC50 of 0.00126 µM.

`COc1ccc(N2C[C@@H](C)N[C@@H](C)C2)cc1NS(=O)(=O)c1ccc(-c2cc(C)cs2)cc1F` gave an EC50 of 0.000501 µM.

As for `Cc1ccc(-c2ccc(S(=O)(=O)Nc3cc(N4C[C@@H](C)N[C@@H](C)C4)ccn3)cc2F)o1`, the EC50 is 0.02 µM.

In turn, `C[C@@H]1CN(c2cccc(NS(=O)(=O)c3ccc(-n4cccn4)cc3)c2)C[C@H](C)N1` showed an EC50 of 0.0251 µM.

The compound `COc1ccc(N2C[C@@H](C)N[C@@H](C)C2)nc1NS(=O)(=O)c1ccc(-c2ccoc2)cc1Cl` gave an EC50 of 0.0251 µM.

`COc1ccc(N2C[C@@H](C)N[C@@H](C)C2)cc1NS(=O)(=O)c1ccc(-c2cccn2C)cc1` gave an EC50 of 0.02 µM.

With `C[C@@H]1CN(c2ccc(Cl)c(NS(=O)(=O)c3ccc(-c4ccco4)cc3)c2)C[C@H](C)N1`, the EC50 is 0.00158 µM.

With `COc1ccc(N2C[C@@H](C)N[C@@H](C)C2)cc1NS(=O)(=O)c1ccc(-c2cccc(Cl)c2)cc1`, a half-maximal effect (EC50) was put at 0.00251 µM.

In turn, `COc1ccc(N2C[C@@H](C)N[C@@H](C)C2)cc1NS(=O)(=O)c1cccc(-c2cc(C)cs2)c1` showed an EC50 of 0.0501 µM.

As to `COc1ccc(N2C[C@@H](C)N[C@@H](C)C2)cc1NS(=O)(=O)c1ccc(-c2ccco2)cc1F`, the EC50 is 0.00158 µM.

In turn, `COc1ccc(NS(=O)(=O)c2ccc(-c3cccs3)cc2C)cc1N1C[C@@H](C)N[C@@H](C)C1` showed an EC50 of 0.001 µM.

Take `COc1ccc(N2C[C@@H](C)N[C@@H](C)C2)cc1NS(=O)(=O)c1cc(C)c(-c2ccccc2F)s1`: the EC50 is 0.0631 µM.

In turn, `COc1ccc(Oc2cccc(S(=O)(=O)Nc3cc(N4C[C@@H](C)N[C@@H](C)C4)ccc3OC)c2)cc1` showed an EC50 of 0.1 µM.

`COc1ccc(NS(=O)(=O)c2ccc(-c3ccoc3)cc2)cc1N1C[C@@H](C)N[C@@H](C)C1` showed an EC50 of 0.0126 µM.

Consider `COc1ccc(NS(=O)(=O)c2cccc3cccnc23)cc1N1C[C@@H](C)N[C@@H](C)C1`, for which the EC50 is 0.398 µM.

`COc1ccc(NS(=O)(=O)c2ccc(-c3cccc(C)c3)s2)cc1N1C[C@@H](C)N[C@@H](C)C1` showed an EC50 of 0.00398 µM.

Turning to `COc1ccc(N2C[C@@H](C)N[C@@H](C)C2)cc1NS(=O)(=O)c1ccc(-c2ccco2)cc1Cl`, the EC50 is 0.000501 µM.

For the compound `Cc1cc(-c2cccs2)ccc1S(=O)(=O)Nc1cc(N2C[C@@H](C)N[C@@H](C)C2)ccc1F`, the EC50 was 0.02 µM.

The compound `COc1ccc(NS(=O)(=O)c2ccc3ccccc3c2)cc1N1C[C@@H](C)N[C@@H](C)C1` had an EC50 of 0.0158 µM.

`C[C@@H]1CN(c2ccc(F)c(NS(=O)(=O)c3ccc(-c4cccs4)cc3)c2)C[C@H](C)N1` showed an EC50 of 0.00501 µM.

For the compound `COc1ccc(N2C[C@@H](C)N[C@@H](C)C2)cc1NS(=O)(=O)c1ccc(-c2ccsc2)c(C)c1`, a half-maximal effect (EC50) was put at 0.00794 µM.

`COc1ccc(N2C[C@@H](C)N[C@@H](C)C2)cc1NS(=O)(=O)c1cccc2cccc(Cl)c12` gave an EC50 of 0.01 µM.

Take `COc1cc(F)c(N2C[C@@H](C)N[C@@H](C)C2)cc1NS(=O)(=O)c1ccc(-c2cccs2)cc1`: the EC50 was 0.00794 µM.

`COc1ccc(N2C[C@@H](C)N[C@@H](C)C2)cc1NS(=O)(=O)c1ccc(-c2ccccc2Cl)s1` showed an EC50 of 0.00251 µM.

`COc1ccc(N2C[C@@H](C)N[C@@H](C)C2)cc1NS(=O)(=O)c1ccc(-c2ccsc2)s1` showed an EC50 of 0.00501 µM.

In turn, `COc1ccc(N2C[C@@H](C)N[C@@H](C)C2)cc1NS(=O)(=O)c1ccc(-c2ccc(C)s2)s1` had an EC50 of 0.0251 µM.

`COc1ccc(N2C[C@@H](C)N[C@@H](C)C2)cc1NS(=O)(=O)c1ccc(-c2ncccn2)cc1` showed an EC50 of 0.0126 µM.

As for `COc1ccc(NS(=O)(=O)c2ccc(-c3cccc(C)n3)s2)cc1N1C[C@@H](C)N[C@@H](C)C1`, the response was half-maximal at 0.000631 µM (EC50).

The compound `COc1ccc(N2C[C@@H](C)N[C@@H](C)C2)cc1NS(=O)(=O)c1ccc(-c2cccc(C)n2)s1` gave an EC50 of 0.01 µM.

The compound `COc1ccc(N2C[C@@H](C)N[C@@H](C)C2)cc1NS(=O)(=O)c1cc(C)c(-c2cccc(C)n2)s1` showed an EC50 of 0.0126 µM.

Compound `Cc1ccc(-c2ccc(S(=O)(=O)Nc3ccnc(N4C[C@@H](C)N[C@@H](C)C4)n3)cc2F)o1` gave an EC50 of 0.0316 µM.

`C[C@@H]1CN(c2ccc(Cl)c(NS(=O)(=O)c3ccc(-c4ccccc4F)s3)c2)C[C@H](C)N1` gave an EC50 of 0.01 µM.

In turn, `Cc1ccc(N2C[C@@H](C)N[C@@H](C)C2)cc1NS(=O)(=O)c1cccc2ccccc12` showed an EC50 of 0.02 µM.

`COc1cc(-c2cc(C)cs2)ccc1S(=O)(=O)Nc1cccc(N2C[C@@H](C)N[C@@H](C)C2)c1` showed an EC50 of 0.00631 µM.

In turn, `C[C@@H]1CN(c2cccc(NS(=O)(=O)c3cccc4ccccc34)c2)C[C@H](C)N1` showed an EC50 of 0.01 µM.

Turning to `COc1ccc(NS(=O)(=O)c2ccc(-c3ccc(C)cc3)cc2)cc1N1C[C@@H](C)N[C@@H](C)C1`, a half-maximal effect (EC50) was put at 0.0794 µM.

Compound `COc1ccc(N2C[C@@H](C)N[C@@H](C)C2)cc1NS(=O)(=O)c1ccc(-c2cccc(C)n2)cc1F` had an EC50 of 0.00794 µM.

On to `COc1ccc(NS(=O)(=O)c2ccc(-c3cccc(C)n3)cc2)cc1N1C[C@@H](C)N[C@@H](C)C1`, for which it took 0.0158 µM to reach a half-maximal effect (EC50).

`COc1ccc(N2C[C@@H](C)N[C@@H](C)C2)cc1NS(=O)(=O)c1sc2ccc(F)cc2c1C` showed a half-maximal effective concentration (EC50) of 0.0316 µM.

Compound `COc1ccc(N2C[C@@H](C)N[C@@H](C)C2)cc1NS(=O)(=O)c1cccc(-c2ccoc2)c1` had an EC50 of 0.0398 µM.

`COc1ccc(N2C[C@@H](C)N[C@@H](C)C2)cc1NS(=O)(=O)c1ccc(-c2ccsc2)cc1C` gave an EC50 of 0.00501 µM.

For `COc1ccc(N2C[C@@H](C)N[C@@H](C)C2)cc1NS(=O)(=O)c1cccc2cccnc12`, the EC50 is 0.0501 µM.

Regarding `COc1ccc(NS(=O)(=O)c2sc3ccc(Cl)cc3c2C)cc1N1C[C@@H](C)N[C@@H](C)C1`, the EC50 was 0.0316 µM.

For the compound `COc1ccc(N2C[C@@H](C)N[C@@H](C)C2)cc1NS(=O)(=O)c1ccc(-c2cccc(F)c2)s1`, it took 0.0316 µM to reach a half-maximal effect (EC50).

Turning to `C[C@@H]1CN(c2ccc(F)c(NS(=O)(=O)c3ccc(-c4ccoc4)cc3)c2)C[C@H](C)N1`, the midpoint of the response, the EC50, lay at 0.0251 µM.

`COc1ccc(N2C[C@@H](C)N[C@@H](C)C2)cc1NS(=O)(=O)c1ccc(-c2cccc(C)n2)c(F)c1` gave an EC50 of 0.0794 µM.

Compound `COCc1cccc(-c2ccc(S(=O)(=O)Nc3cc(N4C[C@@H](C)N[C@@H](C)C4)ccc3OC)cc2)c1` gave an EC50 of 0.00631 µM.

On to `C[C@@H]1CN(c2cccc(NS(=O)(=O)c3ccc(-c4ccc(Cl)s4)cc3)c2)C[C@H](C)N1`, for which the EC50 was 0.0251 µM.

As for `COc1ccc(NS(=O)(=O)c2ccc(-c3ccccc3C)s2)cc1N1C[C@@H](C)N[C@@H](C)C1`, the EC50 is 0.0501 µM.

As for `COc1ccc(NS(=O)(=O)c2ccc(-c3ccsc3)cc2)cc1N1C[C@@H](C)N[C@@H](C)C1`, a half-maximal effect (EC50) was put at 0.00251 µM.

The compound `COc1ccc(N2C[C@@H](C)N[C@@H](C)C2)cc1NS(=O)(=O)c1ccc(-c2ccco2)cc1C` showed an EC50 of 0.002 µM.

Compound `COc1ccc(NS(=O)(=O)c2ccc(-c3ccc(F)cc3)s2)cc1N1C[C@@H](C)N[C@@H](C)C1` showed an EC50 of 0.1 µM.

As for `COc1ccc(N2C[C@@H](C)N[C@@H](C)C2)cc1NS(=O)(=O)c1ccc(-c2csc(C)c2)cc1F`, the EC50 was 0.00251 µM.

As for `Cc1ccc(N2C[C@@H](C)N[C@@H](C)C2)cc1NS(=O)(=O)c1ccc2ccccc2c1`, the EC50 is 0.00501 µM.

The compound `COc1ccc(N2C[C@@H](C)N[C@@H](C)C2)cc1NS(=O)(=O)c1cc(F)c(-c2ccco2)cc1F` showed an EC50 of 0.0158 µM.

`COc1ccc(N2C[C@@H](C)N[C@@H](C)C2)nc1NS(=O)(=O)c1ccc(-c2cc(C)cs2)cc1Cl`: a half-maximal effect (EC50) was put at 0.00501 µM.

For the compound `Cc1ccc(-c2ccc(S(=O)(=O)Nc3cccc(N4C[C@@H](C)N[C@@H](C)C4)n3)cc2F)o1`, the EC50 was 0.001 µM.

`COc1ccc(N2C[C@@H](C)N[C@@H](C)C2)cc1NS(=O)(=O)c1ccc(-c2cc(C)cs2)nc1` showed an EC50 of 0.01 µM.

In turn, `CC(C)Oc1ccc(N2C[C@@H](C)N[C@@H](C)C2)cc1NS(=O)(=O)c1ccc(-c2cccs2)cc1` showed an EC50 of 0.0158 µM.

In turn, `COc1ccc(N2C[C@@H](C)N[C@@H](C)C2)cc1NS(=O)(=O)c1ccc(-c2ccoc2)cc1` had an EC50 of 0.00794 µM.

`COc1cc(Br)ccc1S(=O)(=O)Nc1cc(N2C[C@@H](C)N[C@@H](C)C2)ccc1F` gave an EC50 of 0.1 µM.

In the case of `COc1ccc(N2C[C@@H](C)N[C@@H](C)C2)cc1NS(=O)(=O)c1ccc(Cl)c(Cl)c1`, a half-maximal effect (EC50) was put at 0.0501 µM.

In turn, `COc1ccc(N2C[C@@H](C)N[C@@H](C)C2)cc1NS(=O)(=O)c1ccc(-c2ccsc2)cc1Cl` had an EC50 of 0.00316 µM.

For the compound `C[C@@H]1CN(c2cccc(NS(=O)(=O)c3cc4ccccc4s3)c2)C[C@H](C)N1`, the EC50 was 0.0316 µM.

As to `COc1ccc(N2C[C@@H](C)N[C@@H](C)C2)cc1NS(=O)(=O)c1ccc(-c2ccc(C)s2)cc1F`, the response was half-maximal at 0.00398 µM (EC50).

Compound `COc1ccc(NS(=O)(=O)c2ccc(-c3ccccc3C)cc2)cc1N1C[C@@H](C)N[C@@H](C)C1` had an EC50 of 0.1 µM.

In turn, `C[C@@H]1CN(c2cccc(NS(=O)(=O)c3cccc(Cl)c3Cl)c2)C[C@H](C)N1` gave an EC50 of 0.02 µM.

In the case of `Cc1ccc(-c2ccc(S(=O)(=O)Nc3cc(N4C[C@@H](C)N[C@@H](C)C4)ccc3O)cc2F)o1`, the EC50 was 0.00316 µM.

In turn, `COc1ccc(NS(=O)(=O)c2ccc(-c3cccs3)cc2)cc1N1C[C@@H](C)N[C@@H](C)C1` had an EC50 of 0.001 µM.

`COc1ccc(N2C[C@@H](C)N[C@@H](C)C2)cc1NS(=O)(=O)c1ccc(-c2cccs2)s1`: the EC50 was 0.00398 µM.

`C[C@@H]1CN(c2cc(NS(=O)(=O)c3ccc(-c4cccs4)cc3)ccc2C#N)C[C@H](C)N1` gave an EC50 of 0.1 µM.

In the case of `C[C@@H]1CN(c2ccc(F)c(NS(=O)(=O)c3ccc(-c4cccs4)c(F)c3)c2)C[C@H](C)N1`, the EC50 is 0.01 µM.

As to `COc1ccc(NS(=O)(=O)c2ccc(-c3ccsc3)s2)cc1N1C[C@@H](C)N[C@@H](C)C1`, the EC50 was 0.00158 µM.

In turn, `COc1ccc(NS(=O)(=O)/C=C/c2ccccc2)cc1N1C[C@@H](C)N[C@@H](C)C1` showed an EC50 of 0.0158 µM.

The values above are taken from ChEMBL document CHEMBL2364335, “Structure-activity relationship data for chemical series of achiral agonists of the ghrelin (growth hormone secretagogue) receptor (Supplementary Bioactivity Data for publication CHEMBL1140573)”.
